Measurements as given in US9221784B2, “Benzo[1,3]dioxine derivatives and their use as LPAR5 antagonists” (SANOFI, priority 2012, dated 2015).
pIC50: −log10 of the molar value.

Columns and labels:
Assay type in all cases: cell-based
[1] = target: T1, LPA receptor LPAR5 (Homo sapiens, UniProt Q9H1C0); assay: FLIPR assay, intracellular Ca2+ release in human mast cell line HMC-1; set-up: two cell lines were used with high LPAR5 expression; endogenous in cells; host or cells: HMC-1 human mast cell line; conditions: human mast cell line HMC-1, LPA-stimulated Ca2+ release, test compounds added 10 minutes prior LPA
T1 sequence (Q9H1C0 whole entry): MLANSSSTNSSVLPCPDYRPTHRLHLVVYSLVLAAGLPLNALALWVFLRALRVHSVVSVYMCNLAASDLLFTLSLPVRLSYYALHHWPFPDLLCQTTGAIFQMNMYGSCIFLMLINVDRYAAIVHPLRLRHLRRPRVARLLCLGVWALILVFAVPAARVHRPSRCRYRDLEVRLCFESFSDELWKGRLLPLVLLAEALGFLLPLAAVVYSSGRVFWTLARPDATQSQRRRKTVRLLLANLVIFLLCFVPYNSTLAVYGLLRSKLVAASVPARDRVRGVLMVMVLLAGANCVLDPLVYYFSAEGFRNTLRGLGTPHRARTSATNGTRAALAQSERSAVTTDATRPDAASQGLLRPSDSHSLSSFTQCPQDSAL
From the text: (§1) B) Use of the Fluorometric Imaging Plate Reader (FLIPR) Assay for the Determination of Intracellular Ca^2+ Release in Human Mast Cell Line HMC-1 and the Murine Microglia Cell Line BV-2
(§2) The ability of the compounds of the formula I to inhibit or bind the LPA receptor LPAR5 can be assessed by determining the intracellular Ca^2+ release in human or animal cells. For the analysis of activating potential of LPA and the inhibitory effects of compounds of the formula I two cell lines were used with high LPAR5 expression, the human mast cell line HMC-1 and the murine microglia cell line BV-2 (Figures 1 and 2). For the FLIPR assay using human mast cells in a 96-well-format, HMC-1 suspension cells from flask culture were harvested, resuspended and counted. 14×10^6 HMC-1 cells were transferred into a new 50 ml tube, centrifuged for 3 minutes at 540×g. The resulting cell pellet at the bottom of the tube was resuspended with 15 ml loading buffer (loading buffer contained HBSS buffer (pH 7.4), 0.1% BSA (bovine serum albumin), 2 μM FLUO-4 dye; HBSS buffer (pH 7.4) contained 1×HBSS, 20 mM HEPES, 0.01% Pluronic F-127, 2.5 mM Probenicid).
Cells in loading buffer were incubated for 45-60 minutes at 37° C. After incubation cells were centrifuged for 3 minutes at 540×g and resuspended with 21 ml of HBSS buffer (pH 7.4). Each well of a poly-D-lysine coated 96-well-plate was filled with 150 μl cell solution, an equivalent of 100 000 cells/well. The 96-well-plate was centrifuged for 2 minutes at 100×g (without brake) prior a recovery time of 30 minutes at 37° C. After this procedure cells were stimulated with LPA (in HBSS pH 7.4 and 0.1% BSA) to determine the EC50 of LPA in HMC-1 cells. For the determination of the inhibitory effect of compounds of the formula I, test compounds were added to the cells in the 96-well-plate 10 minutes prior the addition of LPA. Results of the assay are expressed as % activation, and are calculated using maximum peak of activation (Amax). The IC50 data of the above described FLIPR assay using human mast cell line HMC-1 for exemplary compounds of the present invention are shown in Table 2. Adherent BV-2 cells were seeded onto poly-D-lysine coated 96-well-plates (100000 cells/well) the day before performing the FLIPR assay. The density of the cells in the 96-well-plate at the day of the FLIPR assay should be 90%. After aspiration of the culture media, BV-2 cells were incubated for 30 minutes at 37° C. with loading buffer and recovered in 150 μl HBSS buffer for 30 minutes at 37° C. After this procedure cells were stimulated with LPA (in HBSS pH 7.4 and 0.1% BSA) to determine the EC50 of LPA in BV-2 cells. For the determination of the inhibitory effect of compounds of the formula I, test compounds were added to the cells in the 96-well-plate 10 minutes prior the addition of LPA. The IC50 data of the above described FLIPR assay using the murine microglia cell line BV-2 for exemplary compounds of the present invention are shown in Table 3.

[2] = target: T2, LPA receptor LPAR5 (Mus musculus, UniProt Q149R9); assay: FLIPR assay, intracellular Ca2+ release in murine microglia cell line BV-2; conditions: murine microglia cell line BV-2, LPA-stimulated Ca2+ release, test compounds added 10 minutes prior LPA
T2 construct: two cell lines were used with high LPAR5 expression; endogenous in cells; host or cells: BV-2 murine microglia cell line
T2 sequence (Q149R9 whole entry): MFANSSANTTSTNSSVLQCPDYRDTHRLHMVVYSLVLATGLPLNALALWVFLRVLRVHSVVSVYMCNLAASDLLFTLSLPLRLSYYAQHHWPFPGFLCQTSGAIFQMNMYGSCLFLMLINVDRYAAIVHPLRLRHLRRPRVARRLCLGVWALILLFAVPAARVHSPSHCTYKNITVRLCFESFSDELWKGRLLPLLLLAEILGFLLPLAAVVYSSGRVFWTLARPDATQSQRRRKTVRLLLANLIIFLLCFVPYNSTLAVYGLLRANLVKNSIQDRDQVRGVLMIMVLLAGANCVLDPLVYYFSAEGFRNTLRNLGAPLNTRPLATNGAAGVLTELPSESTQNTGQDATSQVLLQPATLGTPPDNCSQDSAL
From the text: as §1, §2
Cells in loading buffer were incubated for 45-60 minutes at 37° C. After incubation cells were centrifuged for 3 minutes at 540×g and resuspended with 21 ml of HBSS buffer (pH 7.4). Each well of a poly-D-lysine coated 96-well-plate was filled with 150 μl cell solution, an equivalent of 100 000 cells/well. The 96-well-plate was centrifuged for 2 minutes at 100×g (without brake) prior a recovery time of 30 minutes at 37° C. After this procedure cells were stimulated with LPA (in HBSS pH 7.4 and 0.1% BSA) to determine the EC50 of LPA in HMC-1 cells. For the determination of the inhibitory effect of compounds of the formula I, test compounds were added to the cells in the 96-well-plate 10 minutes prior the addition of LPA. Results of the assay are expressed as % activation, and are calculated using maximum peak of activation (Amax). […]

[3] = target: T1, LPA receptor LPAR5; assay: Aggregation assay for washed human blood platelets (LPA-induced); conditions: reduction of the maximal aggregation, 5 minutes incubation at 37° C.
Protocol: A) Aggregation Assay for Washed Human Blood Platelets (Thrombocytes)
Whole blood was collected from healthy volunteers using 3×20 ml syringes containing each 1/10 volume of buffered citrate. The anticoagulated whole blood was transferred into 50 ml polypropylene conical tubes (30 ml per tube). The tubes were centrifuged for 10 minutes at 150×g at room temperature without using the centrifuge brake. This procedure results in a lower phase of cellular components and a supernatant (upper phase) of platelet rich plasma (PRP). The PRP phase was collected from each tube and pooled for each donor. To avoid carry over of cellular components following first centrifugation, approximately 5 ml of PRP was left in the tube. The platelet concentration was determined using a ABX Micros 60 counter. The PRP phase was transferred to a new 50 ml tube. After 10 minutes standing at room temperature, 1 μl PGI2 (1 mM in Tris-HCl/pH 8.8) and 180 μl ACD/A were added per ml PRP. The PRP was then transferred to new 10 ml tube and centrifuged for 10 minutes at 500×g. After centrifugation a cellular pellet is visible at the bottom of the tube. The supernatant was carefully discarded and the cellular pellet, consisting of human blood platelets was then dissolved in 10 ml buffer T (buffer T composition: 145 mM NaCl, 5 mM KCl, 0.1 mM MgCl2×6 H2O, 15 mM HEPES, 5.5 mM glucose, pH 7.4). Platelet concentration in this solution was determined and buffer T was added to obtain a final concentration of 3.5×10^5 platelets per ml.
After 10 minutes at room temperature, 1 μl PGI2 per ml platelet solution was added and distributed into new 10 ml tubes. After a centrifugation step, 10 minutes at 500×g, supernatant was discarded and the platelets were resuspended in buffer T to a final concentration of 3.5×10^5 platelets per ml buffer T. Before use, platelet-containing buffer equilibrated for 30 minutes at room temperature. The human platelet aggregation assay was performed in single use cuvettes using the Platelet Aggregation Profiler® (PAP-4 or -8E, BIO/DATA Corporation). For a single experiment, 320 μl of platelet solution were transferred into an assay cuvette, 20 μl of calcium citrate solution (10 mM in H2O) and 20 μl of fibrinogen solution (20 mg/ml H2O) were added. The aggregation assay was performed in the assay cuvette at 37° C. and with 1.200 rpm stirring. To determine the EC50, eight assay cuvettes were loaded as described above with different concentrations of LPA. Aggregation was measured over 6 minutes at 37° C. with 1200 rpm (revolutions per minute) stirring. Results of the assay are expressed as % activation, and are calculated using maximum aggregation (Tmax) or area under curve (AUC) of the absorbance over 6 minutes. The inhibitory effect (IC50) of the test compounds was determined as the reduction of the maximal aggregation. Test compound was added prior starting the experiment with an incubation time of the test compound of 5 minutes at 37° C. with 1200 rpm stirring. The IC50 data of the above described platelet aggregation assay using human washed platelets for exemplary compounds of the present invention are shown in Table 1.

Structure (SMILES) | pIC50 [1] | pIC50 [2] | pIC50 [3]
O=C(O)C1Oc2ccc3c(c2C(C2CCCCC2)(C2CCCCC2)O1)CCCC3 (centres unmarked) [Example 45, 1,1-Dicyclohexyl-7,8,9,10-tetrahydro-1H-naphtho[2,1-d][1,3]dioxine-3-carboxylic acid] | 5.51 | – | –
Cc1cc2c(cc1Cl)C(C1CCCCC1)(C1CCCCC1)OC(C(=O)O)O2 (centres unmarked) [Example 43, 6-Chloro-4,4-dicyclohexyl-7-methyl-4H-benzo[1,3]dioxine-2-carboxylic acid] | 5.48 | – | –
O=C(O)C1Oc2ccc3ccccc3c2C(C2CCCCC2)(C2CCCCC2)O1 (centres unmarked) [Example 33, 1,1-Dicyclohexyl-1H-naphtho[2,1-d][1,3]dioxine-3-carboxylic acid] | 5.48 | – | –
Cc1cccc2c1OC(C(=O)O)OC2(C1CCCCC1)C1CCCCC1 (centres unmarked) [Example 12, 4,4-Dicyclohexyl-8-methyl-4H-benzo[1,3]dioxine-2-carboxylic acid] | – | 5.10 | –
O=C(O)C1Oc2ccc(Br)cc2C(C2CCCCC2)(C2CCCCC2)O1 (centres unmarked) [Example 50, 6-Bromo-4,4-dicyclohexyl-4H-benzo[1,3]dioxine-2-carboxylic acid] | 5.60 | – | –
O=C(O)C1Oc2ccc(Cl)cc2C(C2CCCCC2)(C2CCCCC2)O1 (centres unmarked) [Example 1, 6-Chloro-4,4-dicyclohexyl-4H-benzo[1,3]dioxine-2-carboxylic acid] | 5.49 | 5.39 | 5.96
O=C(O)C1Oc2ccc(Cl)cc2C(C2CCCCCC2)(C2CCCCCC2)O1 (centres unmarked) [Example 55, 6-Chloro-4,4-dicycloheptyl-4H-benzo[1,3]dioxine-2-carboxylic acid] | 5.62 | – | –
O=C(O)C1Oc2ccc(OC(F)(F)F)cc2C(C2CCCCC2)(C2CCCCC2)O1 (centres unmarked) [Example 18, 4,4-Dicyclohexyl-6-trifluoromethoxy-4H-benzo[1,3]dioxine-2-carboxylic acid] | 5.82 | 5.82 | –
Clc1ccc2c(c1)C(C1CCCCC1)(C1CCCCC1)OC(c1nnn[nH]1)O2 (centres unmarked) [Example 60, 5-(6-Chloro-4,4-dicyclohexyl-4H-benzo[1,3]dioxin-2-yl)-1H-tetrazole] | 5.44 | – | –
O=C(c1ccc(Cl)cc1)c1ccc2c(c1)C(C1CCCCC1)(C1CCCCC1)OC(C(=O)O)O2 (centres unmarked) [Example 26, 6-(4-Chloro-benzoyl)-4,4-dicyclohexyl-4H-benzo[1,3]dioxine-2-carboxylic acid] | 5.47 | – | –
O=C(O)C1Oc2ccc(Oc3ccc(Cl)cc3)cc2C(C2CCCCC2)(C2CCCCC2)O1 (centres unmarked) [Example 22, 6-(4-Chloro-phenoxy)-4,4-dicyclohexyl-4H-benzo[1,3]dioxine-2-carboxylic acid] | 5.59 | – | –
O=C(O)C1Oc2cc(-n3cccc3)ccc2C(C2CCCCC2)(C2CCCCC2)O1 (centres unmarked) [Example 2, 4,4-Dicyclohexyl-7-pyrrol-1-yl-4H-benzo[1,3]dioxine-2-carboxylic acid] | 5.47 | – | –
COc1cc(C)c2c(c1)OC(C(=O)O)OC2(C1CCCCC1)C1CCCCC1 (centres unmarked) [Example 36, 4,4-Dicyclohexyl-7-methoxy-5-methyl-4H-benzo[1,3]dioxine-2-carboxylic acid] | – | – | 5.62
O=C(O)C1Oc2c(Cl)cc(Cl)cc2C(C2CCCCC2)(C2CCCCC2)O1 (centres unmarked) [Example 32, 6,8-Dichloro-4,4-dicyclohexyl-4H-benzo[1,3]dioxine-2-carboxylic acid] | 5.46 | – | –
O=C(O)C1Oc2cc(OCc3ccccc3)ccc2C(C2CCCCC2)(C2CCCCC2)O1 (centres unmarked) [Example 37, 7-Benzyloxy-4,4-dicyclohexyl-4H-benzo[1,3]dioxine-2-carboxylic acid] | 5.44 | – | 4.95
CCN(CC)c1ccc2c(c1)OC(C(=O)O)OC2(C1CCCCC1)C1CCCCC1 (centres unmarked) [Example 49, 4,4-Dicyclohexyl-7-diethylamino-4H-benzo[1,3]dioxine-2-carboxylic acid] | 5.44 | – | 5.57
COc1cc(OC)c2c(c1)OC(C(=O)O)OC2(C1CCCCC1)C1CCCCC1 (centres unmarked) [Example 7, 4,4-Dicyclohexyl-5,7-dimethoxy-4H-benzo[1,3]dioxine-2-carboxylic acid] | 5.36 | – | –
O=c1[nH]c(C2Oc3ccc(Cl)cc3C(C3CCCCC3)(C3CCCCC3)O2)no1 (centres unmarked) [Example 61, 3-(6-Chloro-4,4-dicyclohexyl-4H-benzo[1,3]dioxin-2-yl)-4H-[1,2,4]oxadiazol-5-one] | 5.49 | – | –
O=c1[nH]nc(C2Oc3ccc(Cl)cc3C(C3CCCCC3)(C3CCCCC3)O2)o1 (centres unmarked) [Example 63, 5-(6-Chloro-4,4-dicyclohexyl-4H-benzo[1,3]dioxin-2-yl)-3H-[1,3,4]oxadiazol-2-one] | 5.11 | – | –
CCCCOc1ccc2c(c1)OC(C(=O)O)OC2(C1CCCCC1)C1CCCCC1 (centres unmarked) [Example 31, 7-Butoxy-4,4-dicyclohexyl-4H-benzo[1,3]dioxine-2-carboxylic acid] | 5.28 | – | –
CCOc1cccc2c1C(C1CCCCC1)(C1CCCCC1)OC(C(=O)O)O2 (centres unmarked) [Example 30, 4,4-Dicyclohexyl-5-ethoxy-4H-benzo[1,3]dioxine-2-carboxylic acid] | – | – | 5.23
O=C(O)C1Oc2ccc(-c3ccccc3)cc2C(C2CCCCC2)(C2CCCCC2)O1 (centres unmarked) [Example 35, 4,4-Dicyclohexyl-6-phenyl-4H-benzo[1,3]dioxine-2-carboxylic acid] | 5.42 | – | –
O=C(O)C1Oc2c(OC(F)(F)F)cccc2C(C2CCCCC2)(C2CCCCC2)O1 (centres unmarked) [Example 46, 4,4-Dicyclohexyl-8-trifluoromethoxy-4H-benzo[1,3]dioxine-2-carboxylic acid] | 5.49 | – | 5.27
